In article PMC3501123 (Journal of medicinal chemistry, 2012):

What was measured:
C57BL/6 mice [1] = experiment: noxious thermal sensitivity, Hargreaves paw withdrawal latency; format: in vivo, mouse
C57BL/6 mice [2] = experiment: telemetry of heart rate and body temperature; format: in vivo, mouse; details: 5000 nmol/kg, oral
human A1AR [3] = biological target: T1, human A1AR (Homo sapiens, UniProt P30542); experiment: cAMP accumulation assay; format: cell-based; details: for agonist efficacy in cAMP accumulation assay: compared to compound 3, highest concentration tested; for effect of αβ-met-ADP on potency: inclusion of 10 μM αβ-met-ADP (NT5E/CD73 inhibitor)
T1 sequence (P30542 1-326): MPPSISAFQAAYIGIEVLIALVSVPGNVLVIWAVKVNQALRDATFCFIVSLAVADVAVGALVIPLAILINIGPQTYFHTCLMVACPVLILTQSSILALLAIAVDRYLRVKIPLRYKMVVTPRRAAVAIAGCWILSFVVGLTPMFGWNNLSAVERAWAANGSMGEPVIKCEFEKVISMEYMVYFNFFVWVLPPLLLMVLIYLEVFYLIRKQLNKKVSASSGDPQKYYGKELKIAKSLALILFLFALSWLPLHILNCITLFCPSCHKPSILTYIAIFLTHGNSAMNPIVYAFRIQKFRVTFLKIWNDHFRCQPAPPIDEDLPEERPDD

human A1AR [4] = biological target: T1, human A1AR; experiment: Ca2+ mobilization assay with chimeric G proteins; format: cell-based; details: Emax normalized to Emax of adenosine
human A2AAR = human A2AAR (Homo sapiens, UniProt P29274); experiment: radioligand binding assay
human A3AR = biological target: T2, human A3AR (Homo sapiens, UniProt P0DMS8); experiment: radioligand binding assay
T2 sequence (P0DMS8 1-318): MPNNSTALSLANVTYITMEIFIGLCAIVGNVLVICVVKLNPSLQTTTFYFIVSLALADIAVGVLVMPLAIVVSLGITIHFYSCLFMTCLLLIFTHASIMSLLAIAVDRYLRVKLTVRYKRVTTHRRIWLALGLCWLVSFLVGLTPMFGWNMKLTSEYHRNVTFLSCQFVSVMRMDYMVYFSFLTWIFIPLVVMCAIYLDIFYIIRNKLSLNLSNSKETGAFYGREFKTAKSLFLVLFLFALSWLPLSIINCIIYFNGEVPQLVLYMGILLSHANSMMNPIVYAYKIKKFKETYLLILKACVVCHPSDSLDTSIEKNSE

human A2BAR = biological target: T3, human A2BAR (Homo sapiens, UniProt P29275); experiment: radioligand binding assay; details: read-out: % inhibition at A2B, 50 μM
T3 sequence (P29275 1-332): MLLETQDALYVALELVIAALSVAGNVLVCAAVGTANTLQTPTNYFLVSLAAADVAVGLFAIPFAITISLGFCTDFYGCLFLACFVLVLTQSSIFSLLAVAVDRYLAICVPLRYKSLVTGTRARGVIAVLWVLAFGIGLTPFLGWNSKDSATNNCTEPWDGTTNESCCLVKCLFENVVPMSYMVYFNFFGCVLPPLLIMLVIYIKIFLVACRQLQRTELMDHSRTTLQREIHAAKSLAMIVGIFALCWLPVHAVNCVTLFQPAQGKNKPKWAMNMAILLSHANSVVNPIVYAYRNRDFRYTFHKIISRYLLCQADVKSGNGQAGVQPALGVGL

[5] = oral, 50, 500 or 5000 nmol/kg, wild-type mice

human A2AAR, sequence (P29274 whole entry): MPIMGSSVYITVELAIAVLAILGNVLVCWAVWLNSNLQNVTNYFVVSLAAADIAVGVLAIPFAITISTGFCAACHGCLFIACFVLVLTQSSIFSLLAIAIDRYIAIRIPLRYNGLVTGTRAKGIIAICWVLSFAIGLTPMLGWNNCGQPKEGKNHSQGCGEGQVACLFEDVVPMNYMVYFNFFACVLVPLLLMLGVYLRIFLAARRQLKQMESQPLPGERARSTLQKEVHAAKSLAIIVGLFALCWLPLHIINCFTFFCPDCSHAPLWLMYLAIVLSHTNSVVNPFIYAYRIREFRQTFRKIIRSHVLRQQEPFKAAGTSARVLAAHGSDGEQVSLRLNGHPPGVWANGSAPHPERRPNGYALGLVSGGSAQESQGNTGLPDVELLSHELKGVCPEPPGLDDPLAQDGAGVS

Row | agonist efficacy in cAMP accumulation assay (human A1AR [3]) | Compound | effect on noxious thermal sensitivity (C57BL/6 mice [1]; [5]) | effect on body temperature (C57BL/6 mice [2]; A1AR–/– mice) | effect on heart rate (C57BL/6 mice [2]; A1AR–/– mice) | effect on body temperature (C57BL/6 mice [2]; wild-type mice) | effect on heart rate (C57BL/6 mice [2]; wild-type mice) | agonist efficacy in Ca2+ mobilization assay (human A1AR [4]) | selectivity for A1AR over A2AAR (human A2AAR) [fold] | selectivity for A1AR over A3AR (human A3AR) [fold] | inhibition at 50 µM (human A2BAR) [%] | thermal antinociceptive effect in A1AR knockout mice (C57BL/6 mice [1]; A1AR–/– mice, 5 nmol, IT injection) | effect on noxious thermal sensitivity (C57BL/6 mice [1]; intrathecal (IT) or intravenous (IV) injection, mice) | effect of αβ-met-ADP on potency (human A1AR [3])
1 |  | OC[C@H]1O[C@@H](n2cnc3c(NC4CCCC4)ncnc32)[C@H](O)[C@@H]1O [Compound 5, N^6-cyclopentyl adenosine, reference compound] | effects of 3a were similar to 5 | but not in A1AR^–/– mice | modest increase in heart rate | statistically significant decrease | statistically significant decrease |  |  |  |  |  |  | 
2 | full agonists | Nc1ncnc2c1ncn2[C@@H]1O[C@H](CO)[C@@H](O)[C@H]1OP(=O)(O)O [2′-AMP, adenosine 2′-monophosphate] |  |  |  |  |  |  |  |  |  |  |  | did not significantly alter the potencies
3 |  | O=P([O-])([O-])OC[C@H]1O[C@@H](n2cnc3c(NC4CCCC4)nc(Cl)nc32)[C@H](O)[C@@H]1O.[Na+].[Na+] [Compound 3d, Sodium ((2R,3S,4R,5R)-5-(2-Chloro-6-(cyclopentylamino)-9H-purin-9-yl)-3,4-dihydroxytetrahydrofuran-2-yl)methyl Phosphate] |  |  |  |  |  | potent full agonists | > 100 | > 10 |  |  |  | 
4 | full agonists | Nc1ncnc2c1ncn2[C@@H]1O[C@H](CO)[C@@H](OP(=O)(O)O)[C@H]1O [3′-AMP, adenosine 3′-monophosphate] |  |  |  |  |  |  |  |  |  |  |  | did not significantly alter the potencies

Row | Compound | agonist efficacy in cAMP accumulation assay (human A1AR [3]) | effect on noxious thermal sensitivity (C57BL/6 mice [1]; [5]) | effect on body temperature (C57BL/6 mice [2]; A1AR–/– mice) | effect on heart rate (C57BL/6 mice [2]; A1AR–/– mice) | effect on body temperature (C57BL/6 mice [2]; wild-type mice) | effect on heart rate (C57BL/6 mice [2]; wild-type mice) | agonist efficacy in Ca2+ mobilization assay (human A1AR [4]) | selectivity for A1AR over A2AAR (human A2AAR) [fold] | selectivity for A1AR over A3AR (human A3AR) [fold] | inhibition at 50 µM (human A2BAR) [%] | thermal antinociceptive effect in A1AR knockout mice (C57BL/6 mice [1]; A1AR–/– mice, 5 nmol, IT injection) | effect on noxious thermal sensitivity (C57BL/6 mice [1]; intrathecal (IT) or intravenous (IV) injection, mice) | effect of αβ-met-ADP on potency (human A1AR [3])
5 | COP(=O)(OC)OC[C@H]1O[C@@H](n2cnc3c(NC4CCCC4)nc(Cl)nc32)[C@H](O)[C@@H]1O [Compound 3a, ((2R,3S,4R,5R)-5-(2-Chloro-6-(cyclopentylamino)-9H-purin-9-yl)-3,4-dihydroxytetrahydrofuran-2-yl)methyl Dimethyl Phosphate] | full agonist | dose-dependently inhibited noxious thermal sensitivity | negligible effects | negligible effects | negligible effects | negligible effects | potent full agonists | > 100 | > 10 | < 10 | completely abolished | marked and dose-dependent inhibition of noxious thermal sensitivity | 
